Assay results published in patent publication US12605358B2, “Composition for preventing or treating nervous system diseases comprising compound that inhibits mTOR signaling pathway as active ingredient” (ALIAD BIOPHARMA, priority 2021, dated 2026).

Tested on: primary cultured hippocampal neurons
Test: LC3-eGFP puncta formation assay (autophagy promotion)
Type: cell-based, rat
Conditions: rapamycin and HN-1703 at 0.1 μM and 0.5 μM respectively, 12 hours; FIG. 3A
Description: Primary neurons culture was performed from the hippocampus of rat (SD, Orient Bio) embryonic 16-day (E16) embryos. The left and right hemispheres of the extracted brain were separated using sterile tweezers under a dissecting microscope, the meninges were peeled off, the hippocampus was cut with No. 55 tweezers, and neural progenitor cells were mechanically dissolved in a Ca^2+/Mg^2+-free HBSS (Invitrogen) solution by pipetting with a pasteur pipette (Falcon, 354647). Undissolved tissues or vascular cells were settled, and then a supernatant was taken to measure the cell number and the isolated cells were seeded at 19,000 cells/cm^2 in a 35 mm culture dish coated with poly-L-ornithine (sigma, P3655) and fibronectin (sigma, F4759). The cells were cultured using a serum-free N2 medium (growth medium) added with 10 ng/mL bFGF (Invitrogen) in a 5% CO2 incubator, and the culture medium was replaced after 6 hours and after 24 hours. After 2 days, when the cells proliferated twice or more, subculture was performed.
After 3 days of the primary neural progenitor cell culture, a process of subculturing with 0.05% trypsin was repeated twice, and DNA electroporation or transfection was performed before seeding. […]
The number of cell nuclei labeled with DAPI and the number of cells expressing green fluorescence by overlapping LC3-eGFP expression and DAPI labeling were measured. The number of eGFP-LC3 puncta was measured per cell, and the signal intensity of puncta was measured using a confocal laser microscope program. […]
The autophagy promoting effect of HN-1703 in neurons differentiated by culturing hippocampal neural progenitor cells from rat embryos (E16) was evaluated by performing an LC3-eGFP puncta formation assay. The neural progenitor cells into which an LC3-eGFP recombinant gene was introduced by electroporation were differentiated into neurons, treated with rapamycin and HN-1703 at concentrations of 0.1 μM and 0.5 μM for 12 hours, respectively, and the puncta of LC3-GFP were scanned with a confocal laser microscope (Zeiss, LSM800) to measure the fluorescence intensity of LC3-eGFP and the number of puncta, and the results were illustrated in FIG. 3. Specifically, FIG. 3A illustrates confocal scanning micrographs of LC3-eGFP puncta formation after treated primary cultured hippocampal neurons overexpressing an LC3-eGFP fusion protein with HN-1703, and quantifying the number and fluorescence intensity of LC3-eGFP puncta per cell, and FIG. 3B illustrates a result of LC3-II turnover analysis.

## CO[C@H]1C[C@@H]2CC[C@@H](C)[C@@](O)(O2)C(=O)C(=O)N2CCCC[C@H]2C(=O)O[C@H]([C@H](C)C[C@@H]2CC[C@@H](O)[C@H](OC)C2)CC(=O)[C@H](C)/C=C(\C)[C@@H](O)[C@@H](OC)C(=O)[C@H](C)C[C@H](C)/C=C/C=C/C=C/1C [rapamycin, reference compound]
  increase of the number of LC3-eGFP puncta compared to a control group: 49%
  increase of the signal intensity of LC3-eGFP puncta compared to the control group: 15%
